Source: the NIST ThermoML archive (doi:10.1016/j.fluid.2004.09.013)
± gives the expanded uncertainty stated by the source.

Conditions: for mass density: Fluid (supercritical or subcritical phases), Vibrating tube method

SMILES: C=C(C)C [2-methylpropene]
- mass density (458.25 K, 5017 kPa): 125.47 ± 0.61 kg/m3
- mass density (458.25 K, 9993 kPa): 351.66 ± 0.85 kg/m3
- mass density (458.25 K, 14983 kPa): 408.65 ± 0.92 kg/m3
- mass density (458.25 K, 19987 kPa): 439.63 ± 1 kg/m3
- mass density (458.25 K, 25004 kPa): 461.27 ± 1.1 kg/m3
- mass density (458.25 K, 29988 kPa): 478.03 ± 1.2 kg/m3
- mass density (458.25 K, 34987 kPa): 491.88 ± 1.3 kg/m3
- mass density (463.25 K, 5016 kPa): 119.04 ± 0.59 kg/m3
- mass density (463.25 K, 9981 kPa): 338.41 ± 0.82 kg/m3
- mass density (463.25 K, 14994 kPa): 400.72 ± 0.91 kg/m3
- mass density (463.25 K, 19983 kPa): 433.24 ± 1 kg/m3
- mass density (463.25 K, 25001 kPa): 455.8 ± 1.1 kg/m3
- mass density (463.25 K, 29987 kPa): 473.13 ± 1.2 kg/m3
- mass density (463.25 K, 34998 kPa): 487.42 ± 1.3 kg/m3
- mass density (463.25 K, 39991 kPa): 499.76 ± 1.4 kg/m3
- mass density (468.25 K, 5015 kPa): 113.61 ± 0.57 kg/m3
- mass density (468.25 K, 9993 kPa): 325.38 ± 0.8 kg/m3
- mass density (468.25 K, 14991 kPa): 392.57 ± 0.89 kg/m3
- mass density (468.25 K, 19999 kPa): 426.94 ± 0.99 kg/m3
- mass density (468.25 K, 24992 kPa): 450.29 ± 1.1 kg/m3
- mass density (468.25 K, 29998 kPa): 468.26 ± 1.2 kg/m3
- mass density (468.25 K, 34985 kPa): 482.91 ± 1.3 kg/m3
- mass density (473.25 K, 5018 kPa): 109.13 ± 0.55 kg/m3
- mass density (473.25 K, 9986 kPa): 311.87 ± 0.77 kg/m3
- mass density (473.25 K, 14992 kPa): 384.37 ± 0.88 kg/m3
- mass density (473.25 K, 20001 kPa): 420.52 ± 0.98 kg/m3
- mass density (473.25 K, 24988 kPa): 444.78 ± 1.1 kg/m3
- mass density (473.25 K, 29996 kPa): 463.37 ± 1.2 kg/m3
- mass density (473.25 K, 34999 kPa): 478.46 ± 1.2 kg/m3
- mass density (478.25 K, 5019 kPa): 105.12 ± 0.52 kg/m3
- mass density (478.25 K, 9988 kPa): 298.62 ± 0.74 kg/m3
- mass density (478.25 K, 14996 kPa): 376.12 ± 0.86 kg/m3
- mass density (478.25 K, 19999 kPa): 414.08 ± 0.97 kg/m3
- mass density (478.25 K, 24987 kPa): 439.29 ± 1.1 kg/m3
- mass density (478.25 K, 30005 kPa): 458.51 ± 1.1 kg/m3
- mass density (478.25 K, 34997 kPa): 474 ± 1.2 kg/m3
- mass density (483.25 K, 5019 kPa): 101.57 ± 0.5 kg/m3
- mass density (483.25 K, 9988 kPa): 285.6 ± 0.72 kg/m3
- mass density (483.25 K, 14984 kPa): 367.69 ± 0.84 kg/m3
- mass density (483.25 K, 19990 kPa): 407.57 ± 0.95 kg/m3
- mass density (483.25 K, 24996 kPa): 433.89 ± 1.1 kg/m3
- mass density (483.25 K, 29989 kPa): 453.63 ± 1.1 kg/m3
- mass density (483.25 K, 35003 kPa): 469.59 ± 1.2 kg/m3
- mass density (488.24 K, 4981 kPa): 97.35 ± 0.48 kg/m3
- mass density (488.24 K, 20000 kPa): 401.24 ± 0.94 kg/m3
- mass density (488.25 K, 9987 kPa): 273.08 ± 0.69 kg/m3
- mass density (488.25 K, 14983 kPa): 359.4 ± 0.83 kg/m3
- mass density (488.25 K, 24997 kPa): 428.38 ± 1 kg/m3
- mass density (488.25 K, 30002 kPa): 448.75 ± 1.1 kg/m3
- mass density (488.25 K, 35005 kPa): 465.15 ± 1.2 kg/m3
- mass density (493.24 K, 4981 kPa): 94.56 ± 0.46 kg/m3
- mass density (493.24 K, 9988 kPa): 261.21 ± 0.67 kg/m3
- mass density (493.24 K, 14986 kPa): 351.12 ± 0.81 kg/m3
- mass density (493.24 K, 19989 kPa): 394.84 ± 0.93 kg/m3
- mass density (493.24 K, 24992 kPa): 422.89 ± 1 kg/m3
- mass density (493.24 K, 30006 kPa): 443.91 ± 1.1 kg/m3
- mass density (493.24 K, 35002 kPa): 460.71 ± 1.2 kg/m3
- mass density (498.24 K, 5019 kPa): 92.91 ± 0.44 kg/m3
- mass density (498.24 K, 19995 kPa): 387.94 ± 0.91 kg/m3
- mass density (498.24 K, 30000 kPa): 439.07 ± 1.1 kg/m3
- mass density (498.25 K, 9984 kPa): 249.88 ± 0.64 kg/m3
- mass density (498.25 K, 14995 kPa): 342.92 ± 0.8 kg/m3
- mass density (498.25 K, 24992 kPa): 417.4 ± 1 kg/m3
- mass density (498.25 K, 34999 kPa): 456.28 ± 1.2 kg/m3
- mass density (503.24 K, 4997 kPa): 90.01 ± 0.42 kg/m3
- mass density (503.24 K, 9991 kPa): 239.72 ± 0.62 kg/m3
- mass density (503.24 K, 14990 kPa): 334.64 ± 0.78 kg/m3
- mass density (503.24 K, 19984 kPa): 381.57 ± 0.9 kg/m3
- mass density (503.24 K, 24988 kPa): 411.94 ± 1 kg/m3
- mass density (503.24 K, 30005 kPa): 434.24 ± 1.1 kg/m3
- mass density (503.24 K, 34991 kPa): 451.87 ± 1.2 kg/m3
- mass density (503.24 K, 39995 kPa): 466.57 ± 1.3 kg/m3
- mass density (508.24 K, 5016 kPa): 88.26 ± 0.4 kg/m3
- mass density (508.24 K, 9990 kPa): 230.13 ± 0.6 kg/m3
- mass density (508.24 K, 14990 kPa): 326.56 ± 0.77 kg/m3
- mass density (508.24 K, 19994 kPa): 375.29 ± 0.89 kg/m3
- mass density (508.24 K, 24991 kPa): 406.52 ± 0.99 kg/m3
- mass density (508.24 K, 30000 kPa): 429.41 ± 1.1 kg/m3
- mass density (508.24 K, 34996 kPa): 447.5 ± 1.2 kg/m3
- mass density (508.24 K, 39992 kPa): 462.51 ± 1.3 kg/m3
- mass density (513.24 K, 5016 kPa): 86.21 ± 0.39 kg/m3
- mass density (513.24 K, 9990 kPa): 221.29 ± 0.58 kg/m3
- mass density (513.24 K, 14992 kPa): 318.59 ± 0.75 kg/m3
- mass density (513.24 K, 19996 kPa): 368.96 ± 0.88 kg/m3
- mass density (513.24 K, 24989 kPa): 401.13 ± 0.98 kg/m3
- mass density (513.24 K, 30003 kPa): 424.62 ± 1.1 kg/m3
- mass density (513.24 K, 35008 kPa): 443.17 ± 1.2 kg/m3
- mass density (513.24 K, 39996 kPa): 458.53 ± 1.3 kg/m3
- mass density (518.23 K, 5016 kPa): 84.36 ± 0.37 kg/m3
- mass density (518.24 K, 9992 kPa): 213.29 ± 0.56 kg/m3
- mass density (518.24 K, 14986 kPa): 310.73 ± 0.74 kg/m3
- mass density (518.24 K, 19995 kPa): 362.67 ± 0.87 kg/m3
- mass density (518.24 K, 24992 kPa): 395.78 ± 0.97 kg/m3
- mass density (518.24 K, 29993 kPa): 419.86 ± 1.1 kg/m3
- mass density (518.24 K, 34991 kPa): 438.82 ± 1.2 kg/m3
- mass density (518.24 K, 39999 kPa): 454.51 ± 1.3 kg/m3
- mass density (523.23 K, 5019 kPa): 82.65 ± 0.36 kg/m3
- mass density (523.23 K, 9982 kPa): 205.67 ± 0.57 kg/m3
- mass density (523.23 K, 14990 kPa): 303.2 ± 0.77 kg/m3
- mass density (523.23 K, 19986 kPa): 356.38 ± 0.86 kg/m3
- mass density (523.23 K, 24989 kPa): 390.45 ± 0.97 kg/m3
- mass density (523.23 K, 29998 kPa): 415.17 ± 1.1 kg/m3
- mass density (523.23 K, 39987 kPa): 450.55 ± 1.2 kg/m3
- mass density (523.24 K, 34992 kPa): 434.55 ± 1.2 kg/m3
- Critical pressure (Liquid): 4009.8 ± 11 kPa
- Critical temperature (Liquid): 418.09 ± 0.11 K
- Critical density (Liquid, visual observation in a variable volume cell:FP): 233.97 ± 4.7 kg/m3
